Test results from patent US7745450B2, “Pyrazolo[4,3-d]pyrimidines, processes for their preparation and methods for therapy” (Institute of Experimental Botany, priority 2002, dated 2010).
pIC50: −log10 of the molar value. Like-named read-outs stand apart in the source and are kept apart here.

Columns and labels:
[1] = tested on: Cytokinin-dependent tobacco callus Nicotiana tabacum L. cv. Wisconsins 38; assay: Tobacco callus bioassay for cytotoxicity (herbicidal activity); format: cell-based
Procedure: The novel compounds have also been tested in tobacco callus bioassay for cytotoxicity (herbicidal activity) and induction of cell death. The compounds to be tested were dissolved in dimethylsulfoxide (DMSO) and the solution brought up to 10^−3 M with distilled water. […] Cytokinin-dependent tobacco callus Nicotiana tabacum L. cv. Wisconsins 38 Murashige-Skoog medium, containing per 1 liter: 4 μmol nicotinic acid, 2.4 μmol pyridoxine hydrochloride, 1.2 μmol thiamine, 26.6 μmol glycine, 1.37 μmol glutamine, 1.8 μmol myo.inositol, 30 g of sucrose, 8 g of agar, […] α-naphthylacetic acid and 0.5 μmol 6-benzylaminopurine. Sub cultivation was carried out every three weeks. Fourteen days before the bioassay, the callus tissue was transferred to the media without 6-benzylaminopurine. Compounds were tested with two different concentrations of 6-benzylaminopurine (10^−5 M and 10^−6 M). Inhibitory growth activity was determined from the increase in fresh callus weight after four weeks of cultivation. Five replicates were prepared for each concentration tested and the entire test was repeated at least twice.

IκB-α kinase = IκB-α kinase inhibition, in vitro kinase assay; format: biochemical
cdk1/cyclin B (CDC2) = cdk1/cyclin B (CDC2) (Homo sapiens, UniProt P06493); assay: CDK inhibition assay, cdk1/cyclin B (CDC2) kinase, histone phosphorylation; format: biochemical
cdk1/cyclin B (CDC2), sequence (P06493 whole entry, species assumed): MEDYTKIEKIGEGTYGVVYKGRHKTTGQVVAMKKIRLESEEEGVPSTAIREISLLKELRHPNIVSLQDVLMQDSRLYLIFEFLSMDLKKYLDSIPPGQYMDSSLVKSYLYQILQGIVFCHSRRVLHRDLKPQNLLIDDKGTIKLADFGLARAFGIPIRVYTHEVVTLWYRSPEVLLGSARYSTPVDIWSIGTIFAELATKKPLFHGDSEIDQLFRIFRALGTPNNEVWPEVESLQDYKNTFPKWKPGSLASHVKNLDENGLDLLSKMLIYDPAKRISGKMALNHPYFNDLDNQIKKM
cdk1/cyclin B (CDC2), sequence (P14635 whole entry partner, species assumed): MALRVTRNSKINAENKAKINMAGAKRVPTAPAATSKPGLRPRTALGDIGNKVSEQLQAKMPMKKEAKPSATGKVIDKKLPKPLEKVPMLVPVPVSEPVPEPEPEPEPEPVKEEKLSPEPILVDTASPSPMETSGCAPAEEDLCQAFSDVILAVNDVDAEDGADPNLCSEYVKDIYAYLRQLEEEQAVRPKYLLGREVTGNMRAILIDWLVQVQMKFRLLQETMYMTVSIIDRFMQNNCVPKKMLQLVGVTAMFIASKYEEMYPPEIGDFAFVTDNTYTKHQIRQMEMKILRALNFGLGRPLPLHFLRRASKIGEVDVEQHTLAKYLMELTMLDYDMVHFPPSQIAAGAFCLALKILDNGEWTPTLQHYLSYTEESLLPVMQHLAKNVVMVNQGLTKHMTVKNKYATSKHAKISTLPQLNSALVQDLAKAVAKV
Procedure: Selected compounds were tested for cdk1/cyclin B and cdk2/cyclin E inhibitory activity to determine the basic relationships between their interaction energy of docked complex and the inhibitory activity. Cdk2/cyclin E complex was produced in SIP insect cells co-infected with appropriate baculoviral construct. The cells were harvested 70 hours post infection in lysis buffer (50 mM Tris 7.4 pH, 150 mM NaCl, 5 mM EDTA, 20 mM NaF, 1% Tween 20, protease inhibitors) for 30 min on ice and the soluble fraction was recovered by centrifugation at 14.000 g for 10 min. The protein extract was stored at −80° C. until use. The final point test system for kinase activity measurement was used to carry out experiments on the kinetics under linear conditions. The assay mixture contained 1 mg/ml histone (Sigma Type III-S), 15 μM ATP, 0.2 μCi [γ-^32P] ATP and tested compound in a final volume of 20 μl, all in reaction buffer: 50 mM Hepes 7.4 pH, 10 mM MgCl2, 5 mM EGTA, 10 mM 2-glycerolphosphate, 1 mM NaF, 1 mM DTT and protease inhibitors. […] The measurement of kinase inhibition employed the digital imaging analyzer BAS 1800. The kinase activity was expressed as a percentage of maximum activity and the IC50 value was determined by graphic analysis. The kinase activity is expressed as a percentage of maximum activity, the apparent inhibition constants are determined by graphic analysis from dose-response curves presented on FIG. 1.

[2] = Nicotiana tabacum, 672 h, read-out: 10^−5 M BAP IC50, 10^−5 M 6-benzylaminopurine, four weeks
[3] = Nicotiana tabacum, 672 h, read-out: 10^−6 M BAP IC50, 10^−6 M 6-benzylaminopurine, four weeks

Row | SMILES | pIC50 (IκB-α kinase) | pIC50 (cdk1/cyclin B (CDC2)) | pIC50 [1, 2] | pIC50 [1, 3] | pIC50 ([1]; read-out: 10^−5 M BAP IC50, 10^−5 M 6-benzylaminopurine, four weeks)
1 | CC(C)c1n[nH]c2c(Nc3cc(N)cc(Cl)c3)nc(N[C@@H](CO)C(C)C)nc12 | 7.82 | 8.10 | 4.42 | 5.38 | 
2 | Cc1n[nH]c2c(NCc3ccccc3)nc(N[C@@H](CO)C(C)C)nc12 | 7.70 | 8.00 | < 4.30 | 4.55 | 
3 | CC[C@H](CO)Nc1nc(NCc2c(N)cccc2Cl)c2[nH]nc(C(C)C)c2n1 | 8.46 | 7.92 | < 4.30 | 4.53 | 
4 | CC[C@H](CO)Nc1nc(NCc2ccccc2O)c2[nH]nc(C(C)C)c2n1 | 7.92 | 8.10 |  |  | 
5 | CC[C@H](CO)Nc1nc(NCc2cccc(C(C)=O)c2)c2[nH]nc(C(C)C)c2n1 | 7.40 | 8.00 |  |  | 
6 | CC[C@H](CO)Nc1nc(NCc2ccc(Cl)c(N)c2)c2[nH]nc(C(C)C)c2n1 | 7.62 | 7.10 | 4.59 | 5.89 | 
7 | CC[C@H](CO)Nc1nc(NCc2ccc(O)c(O)c2)c2[nH]nc(C(C)C)c2n1 | 5.96 | 6.30 |  |  | 
8 | CC[C@H](CO)Nc1nc(NCc2ccccc2)c2[nH]nc(C)c2n1 | 6.52 | 7.00 | < 4.30 | 4.43 | 
9 | CC(C)c1n[nH]c2c(NC(CO)c3ccccc3)nc(N[C@@H](CO)C(C)C)nc12 (mixture of isomers) | 6.82 | 7.22 |  |  | 
10 | CC[C@H](CO)Nc1nc(NC(CO)c2ccccc2)c2[nH]nc(C(C)C)c2n1 (mixture of isomers) | 6.68 | 7.05 |  |  | 
11 | Cc1n[nH]c2c(NC(CO)c3ccccc3)nc(NCCO)nc12 (racemic) | 6.40 | 6.70 |  |  | 
12 | Cc1n[nH]c2c(Nc3ccccc3)nc(NCCO)nc12 [2-hydroxyethylamino; anilino; methyl] | 6.68 | 7.05 |  |  | 
13 | Cc1n[nH]c2c(NCc3ccccc3)nc(NCCO)nc12 [2-hydroxyethylamino; benzylamino; methyl] | 5.03 | 5.40 |  |  | 

Compounds with a higher pIC50 (cdk1/cyclin B (CDC2)), results first:

Row | pIC50 (IκB-α kinase) | pIC50 (cdk1/cyclin B (CDC2)) | SMILES | pIC50 [1, 2] | pIC50 [1, 3] | pIC50 ([1]; read-out: 10^−5 M BAP IC50, 10^−5 M 6-benzylaminopurine, four weeks)
14 | 7.82 | 8.30 | CC[C@H](CO)Nc1nc(NCc2ccccc2C(C)=O)c2[nH]nc(C(C)C)c2n1 |  |  | 
15 |  | 8.30 | CC(C)c1n[nH]c2c(NCc3ccccc3)nc(NC3CCC(N)CC3)nc12 (stereo not shown) [Compound 268, 3-isopropyl-5-(4-aminocyclohexylamino)-7-benzylamino-pyrazolo[4,3-d]pyrimidine] | < 4.30 | 4.49 | 
16 | 8.05 | 8.40 | CC(C)c1n[nH]c2c(Nc3cccc(Cl)c3)nc(N[C@@H](CO)C(C)C)nc12 | < 4.30 | 4.96 | 
17 |  | 8.40 | CC[C@H](CO)Nc1nc(Nc2cccc(Cl)c2)c2[nH]nc(C(C)C)c2n1 | 4.35 |  | < 4.30
18 | 7.96 | 8.52 | CC[C@H](CO)Nc1nc(NCc2ccc(Cl)c(O)c2O)c2[nH]nc(C(C)C)c2n1 |  |  | 
19 | 8.52 | 8.70 | CC(C)c1n[nH]c2c(Nc3ccc(N)c(Cl)c3)nc(N[C@@H](CO)C(C)C)nc12 | 4.80 | 6.05 | 
20 | 8.52 | 8.70 | CC(C)c1n[nH]c2c(Nc3ccc(Br)cc3)nc(N[C@@H](CO)C(C)C)nc12 | < 4.30 | < 4.30 | 
21 | 8.30 | 8.70 | CC[C@H](CO)Nc1nc(NCc2ccc(OC)c(O)c2O)c2[nH]nc(C(C)C)c2n1 |  |  | 
22 | 8.22 | 8.70 | CC[C@H](CO)Nc1nc(NCc2cc(O)c(OC)cc2O)c2[nH]nc(C(C)C)c2n1 |  |  | 
23 | 8.52 | 9.00 | CC(C)c1n[nH]c2c(Nc3ccccc3)nc(N[C@@H](CO)C(C)C)nc12 | 4.38 | 5.32 | 
24 | 8.70 | 9.05 | CC(C)c1n[nH]c2c(Nc3ccc(C(=O)O)c(Cl)c3)nc(N[C@@H](CO)C(C)C)nc12 | 4.59 | 5.85 | 
25 | 8.52 | 9.10 | CC[C@H](CO)Nc1nc(NCc2c(O)cc(OC)cc2O)c2[nH]nc(C(C)C)c2n1 |  |  | 
26 | 9.00 | 9.30 | CC(C)c1n[nH]c2c(Nc3ccc(Cl)cc3)nc(N[C@@H](CO)C(C)C)nc12 | 4.62 | 5.64 | 
